Reference: ChEMBL document CHEMBL2074380, “Pyronaridine, a novel modulator of P-glycoprotein-mediated multidrug resistance in tumor cells in vitro and in vivo” (Biochem Biophys Res Commun, 2004)

How the values were obtained:
Assay type in all cases: functional, cell-based
[1] = biological target: T1, ATP-dependent translocase ABCB1 (Homo sapiens, UniProt P08183); test: TP_TRANSPORTER: increase in Rhodamine 123 intracellular accumulation in K562/A02 cells
[2] = biological target: T1, ATP-dependent translocase ABCB1; test: TP_TRANSPORTER: drug resistance (doxorubicin) in K562/A02 cells
[3] = biological target: T1, ATP-dependent translocase ABCB1; test: TP_TRANSPORTER: drug resistance (doxorubicin) in MCF-7/ADR cells; details: nci/adr-res

Measured: Activity

T1 sequence (P08183 whole entry): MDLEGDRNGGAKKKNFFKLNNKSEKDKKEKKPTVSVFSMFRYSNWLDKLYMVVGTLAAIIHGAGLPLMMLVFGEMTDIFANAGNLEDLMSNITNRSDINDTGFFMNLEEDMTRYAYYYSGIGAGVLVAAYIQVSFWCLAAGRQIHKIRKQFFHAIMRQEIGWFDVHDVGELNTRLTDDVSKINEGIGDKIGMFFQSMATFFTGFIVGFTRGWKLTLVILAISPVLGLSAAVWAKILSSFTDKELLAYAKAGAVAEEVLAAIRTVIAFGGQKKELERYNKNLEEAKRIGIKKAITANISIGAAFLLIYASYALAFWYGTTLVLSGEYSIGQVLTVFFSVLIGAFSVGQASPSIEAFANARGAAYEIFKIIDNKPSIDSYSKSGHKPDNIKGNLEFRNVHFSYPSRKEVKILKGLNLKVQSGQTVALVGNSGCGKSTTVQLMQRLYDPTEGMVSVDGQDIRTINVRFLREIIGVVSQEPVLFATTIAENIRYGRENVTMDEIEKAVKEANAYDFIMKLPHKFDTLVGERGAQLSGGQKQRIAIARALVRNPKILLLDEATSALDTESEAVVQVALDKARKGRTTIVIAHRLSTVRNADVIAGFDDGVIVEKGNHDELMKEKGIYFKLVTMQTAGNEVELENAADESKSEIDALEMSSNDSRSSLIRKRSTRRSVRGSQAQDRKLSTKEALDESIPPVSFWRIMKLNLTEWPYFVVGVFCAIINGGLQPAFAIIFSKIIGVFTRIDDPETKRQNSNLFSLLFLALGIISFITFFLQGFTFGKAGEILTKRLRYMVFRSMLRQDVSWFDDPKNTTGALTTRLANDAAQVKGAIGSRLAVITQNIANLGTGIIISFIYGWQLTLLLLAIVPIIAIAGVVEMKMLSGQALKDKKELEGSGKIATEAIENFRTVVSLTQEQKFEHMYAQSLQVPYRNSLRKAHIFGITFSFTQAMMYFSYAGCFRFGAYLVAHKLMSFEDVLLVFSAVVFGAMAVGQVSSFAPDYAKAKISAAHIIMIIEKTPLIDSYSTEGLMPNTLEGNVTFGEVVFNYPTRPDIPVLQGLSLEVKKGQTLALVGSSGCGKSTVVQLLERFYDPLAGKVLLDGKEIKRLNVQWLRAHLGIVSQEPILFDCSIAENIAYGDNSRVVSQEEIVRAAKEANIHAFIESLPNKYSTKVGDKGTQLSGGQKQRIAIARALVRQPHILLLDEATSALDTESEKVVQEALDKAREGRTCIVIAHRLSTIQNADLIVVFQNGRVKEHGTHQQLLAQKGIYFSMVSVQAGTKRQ

COc1ccc2nc3cc(Cl)ccc3c(Nc3cc(CN4CCCC4)c(O)c(CN4CCCC4)c3)c2n1 [PYRONARIDINE]
inhibitor [+]: [1] | [2] | [3]
